Test results reported in the supplement of paper PMC11208160.

Assay: recombinant UMI read abundance after kanamycin selection (control-corrected) (log10(CPM+1)); higher = more efficient recombination; extreme values may be limits of the assay; sequences stand for … in AGTGCAGAGAAAATCGGCCAGTTTTCTCTGCCTGCAGTCCGCATGCCGTGGGACCCCTTGGGTTCTAACCTGTTGCCTAGATTTATGCAGCGGACTGCCTTTCTCCCAAAGTGATAAACCGG…AGGTTGGTTTCACT; site = the 11-nt donor
Summary of the method: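 Sequencing read counts were converted to CPM, averaged over two replicates and scaled by control-derived factors. Results are given as log10(CPM+1). The reads covered the donor–target junction of recombinant UMIs from a pooled Escherichia coli screen of donor and donor-binding-loop pairs for the IS621 bridge recombinase.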
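Note: IS621 bridge recombinase in Escherichia coli cells against a fixed T5 target plasmid.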

“ATCAGGCCATGGACCGGTTTTCCCGGTAATCCGTATTTGAC (site ATGAGGCCTGT)” and “ATCAGGCCATGGACCGGTTTTCCCGGTAATCCGTATTTGAC (site ATTAGGCCTGT)” are the same in “recombinant UMI read abundance (log10)” value: 0 for the first, 0 for the second.

“ATCAGGCCATGGACCGGTTTTCCCGGTAATCCGTATTTGAG (site ATCAGGCCTCT)” and “ATCATGCCATGGACCGGTTTTCCCGGTAATCCGTATTTGCC (site ATCATGCCTGG)” are the same in “recombinant UMI read abundance (log10)” value: 0 for the first, 0 for the second.

Compared with “ATCATTGCATGGACCGGTTTTCCCGGTAATCCGTATTTGAC (site ATCATTGCTGT)”, “ATCATTTCATGGACCGGTTTTCCCGGTAATCCGTATTTGCA (site ATCATTTCTTG)” is higher in “recombinant UMI read abundance (log10)” value: 1.48 for the first, 1.73 for the second.

Compared with “ATCCAAGCATGGACCGGTTTTCCCGGTAATCCGTATTTGAC (site ATCCAAGCTAT)”, “ATCCAAGCATGGACCGGTTTTCCCGGTAATCCGTATTTGAC (site ATCCAAGCTCT)” is lower in “recombinant UMI read abundance (log10)” value: 0.937 for the first, 0.0101 for the second.

Going from “ATCCAAGCATGGACCGGTTTTCCCGGTAATCCGTATTTGAC (site ATCCAAGCTGT)” to “ATCCAAGCATGGACCGGTTTTCCCGGTAATCCGTATTTGAC (site ATCCAAGCTTT)”, the “recombinant UMI read abundance (log10)” value falls from 1.73 to 0.767.

First: ATCCAAGCATGGACCGGTTTTCCCGGTAATCCGTATTTGAG (site AACCAAGCTCT)
Second: ATCCAAGCATGGACCGGTTTTCCCGGTAATCCGTATTTGAG (site ACCCAAGCTCT)
The “recombinant UMI read abundance (log10)” value of the first is lower: 0.0115 for the first, 0.646 for the second.

“ATCCAAGCATGGACCGGTTTTCCCGGTAATCCGTATTTGAG (site AGCCAAGCTCT)” and “ATCCAAGCATGGACCGGTTTTCCCGGTAATCCGTATTTGAG (site ATACAAGCTCT)” are within 0.2 log units of each other in “recombinant UMI read abundance (log10)” value: 0.194 for the first, 0.0267 for the second.

Going from “ATCCAAGCATGGACCGGTTTTCCCGGTAATCCGTATTTGAG (site ATCAAAGCTCT)” to “ATCCAAGCATGGACCGGTTTTCCCGGTAATCCGTATTTGAG (site ATCCAAACTCT)”, the “recombinant UMI read abundance (log10)” value rises from 0.429 to 1.09.

Going from “ATCCAAGCATGGACCGGTTTTCCCGGTAATCCGTATTTGAG (site ATCCAACCTCT)” to “ATCCAAGCATGGACCGGTTTTCCCGGTAATCCGTATTTGAG (site ATCCAAGCTAT)”, the “recombinant UMI read abundance (log10)” value rises from 0.00996 to 1.64.

“ATCCAAGCATGGACCGGTTTTCCCGGTAATCCGTATTTGAG (site ATCCAAGCTCA)” and “ATCCAAGCATGGACCGGTTTTCCCGGTAATCCGTATTTGAG (site ATCCAAGCTCC)” are within 0.2 log units of each other in “recombinant UMI read abundance (log10)” value: 0.209 for the first, 0.0127 for the second.

Compared with “ATCCAAGCATGGACCGGTTTTCCCGGTAATCCGTATTTGAG (site ATCCAAGCTCG)”, “ATCCAAGCATGGACCGGTTTTCCCGGTAATCCGTATTTGAG (site ATCCAAGCTCT)” is higher in “recombinant UMI read abundance (log10)” value: 0.141 for the first, 0.799 for the second.

First: ATCCAAGCATGGACCGGTTTTCCCGGTAATCCGTATTTGAG (site ATCCAAGCTGT)
Second: ATCCAAGCATGGACCGGTTTTCCCGGTAATCCGTATTTGAG (site ATCCAAGCTTT)
The “recombinant UMI read abundance (log10)” value of the first is lower: 0 for the first, 0.757 for the second.

Going from “ATCCAAGCATGGACCGGTTTTCCCGGTAATCCGTATTTGAG (site ATCCAATCTCT)” to “ATCCAAGCATGGACCGGTTTTCCCGGTAATCCGTATTTGAG (site ATCCACGCTCT)”, the “recombinant UMI read abundance (log10)” value falls from 0.773 to 0.0466.

Going from “ATCCAAGCATGGACCGGTTTTCCCGGTAATCCGTATTTGAG (site ATCCAGGCTCT)” to “ATCCAAGCATGGACCGGTTTTCCCGGTAATCCGTATTTGAG (site ATCCATGCTCT)”, the “recombinant UMI read abundance (log10)” value falls from 0.356 to 0.0106.

“ATCCAAGCATGGACCGGTTTTCCCGGTAATCCGTATTTGAG (site ATCCCAGCTCT)” and “ATCCAAGCATGGACCGGTTTTCCCGGTAATCCGTATTTGAG (site ATCCGAGCTCT)” are within 0.2 log units of each other in “recombinant UMI read abundance (log10)” value: 0.0104 for the first, 0.00838 for the second.

Going from “ATCCAAGCATGGACCGGTTTTCCCGGTAATCCGTATTTGAG (site ATCCTAGCTCT)” to “ATCCAAGCATGGACCGGTTTTCCCGGTAATCCGTATTTGAG (site ATCGAAGCTCT)”, the “recombinant UMI read abundance (log10)” value falls from 0.357 to 0.00681.

First: ATCCAAGCATGGACCGGTTTTCCCGGTAATCCGTATTTGAG (site ATCTAAGCTCT)
Second: ATCCAAGCATGGACCGGTTTTCCCGGTAATCCGTATTTGAG (site ATGCAAGCTCT)
The “recombinant UMI read abundance (log10)” value of the first is higher: 0.231 for the first, 0.0198 for the second.

First: ATCCAAGCATGGACCGGTTTTCCCGGTAATCCGTATTTGAG (site ATTCAAGCTCT)
Second: ATCCAAGCATGGACCGGTTTTCCCGGTAATCCGTATTTGAG (site CTCCAAGCTCT)
The “recombinant UMI read abundance (log10)” value of the first is lower: 0.0155 for the first, 0.656 for the second.

Going from “ATCCAAGCATGGACCGGTTTTCCCGGTAATCCGTATTTGAG (site GTCCAAGCTCT)” to “ATCCAAGCATGGACCGGTTTTCCCGGTAATCCGTATTTGAG (site TTCCAAGCTCT)”, the “recombinant UMI read abundance (log10)” value rises from 0.00952 to 1.17.

Compared with “ATCCAAGCATGGACCGGTTTTCCCGGTAATCCGTATTTGAT (site ATCCAAGCTAT)”, “ATCCAAGCATGGACCGGTTTTCCCGGTAATCCGTATTTGAT (site ATCCAAGCTCT)” is lower in “recombinant UMI read abundance (log10)” value: 1.36 for the first, 0.233 for the second.

Going from “ATCCAAGCATGGACCGGTTTTCCCGGTAATCCGTATTTGAT (site ATCCAAGCTGT)” to “ATCCAAGCATGGACCGGTTTTCCCGGTAATCCGTATTTGAT (site ATCCAAGCTTT)”, the “recombinant UMI read abundance (log10)” value falls from 1.37 to 0.0123.

“ATCCAAGCATGGACCGGTTTTCCCGGTAATCCGTATTTGCG (site ATCCAAGCTCA)” and “ATCCAAGCATGGACCGGTTTTCCCGGTAATCCGTATTTGCG (site ATCCAAGCTCC)” are within 0.2 log units of each other in “recombinant UMI read abundance (log10)” value: 0.0396 for the first, 0.00949 for the second.

Compared with “ATCCAAGCATGGACCGGTTTTCCCGGTAATCCGTATTTGCG (site ATCCAAGCTCG)”, “ATCCAAGCATGGACCGGTTTTCCCGGTAATCCGTATTTGCG (site ATCCAAGCTCT)” is higher in “recombinant UMI read abundance (log10)” value: 0.262 for the first, 0.689 for the second.

“ATCCATGCATGGACCGGTTTTCCCGGTAATCCGTATTTGAG (site ATCCAAGCTCT)” and “ATCCATGCATGGACCGGTTTTCCCGGTAATCCGTATTTGAG (site ATCCACGCTCT)” are within 0.2 log units of each other in “recombinant UMI read abundance (log10)” value: 0.0773 for the first, 0.0124 for the second.

Going from “ATCCATGCATGGACCGGTTTTCCCGGTAATCCGTATTTGAG (site ATCCAGGCTCT)” to “ATCCATGCATGGACCGGTTTTCCCGGTAATCCGTATTTGAG (site ATCCATGCTCT)”, the “recombinant UMI read abundance (log10)” value rises from 0.0333 to 1.05.

Compared with “ATCCGCGCATGGACCGGTTTTCCCGGTAATCCGTATTTGCG (site ATCCGCGCTCG)”, “ATCCTAGCATGGACCGGTTTTCCCGGTAATCCGTATTTGTA (site ATCCTAGCTTA)” is higher in “recombinant UMI read abundance (log10)” value: 0.503 for the first, 1.58 for the second.

First: ATCCTATCATGGACCGGTTTTCCCGGTAATCCGTATTTGAG (site ATCCTATCTCT)
Second: ATCCTTCCATGGACCGGTTTTCCCGGTAATCCGTATTTGCC (site ATCCTTCCTGG)
The “recombinant UMI read abundance (log10)” value of the first is higher: 0.448 for the first, 0 for the second.

Going from “ATCGAGACATGGACCGGTTTTCCCGGTAATCCGTATTTGGT (site ATAGAGACTAC)” to “ATCGAGACATGGACCGGTTTTCCCGGTAATCCGTATTTGGT (site ATCGAGACTAC)”, the “recombinant UMI read abundance (log10)” value falls from 1.76 to 1.01.

For “ATCGAGACATGGACCGGTTTTCCCGGTAATCCGTATTTGGT (site ATGGAGACTAC)”, the “recombinant UMI read abundance (log10)” value was 0.604.
